Assays:
[1] = molecular target: T1, GST tagged LXRbeta LBD (ligand binding domain) (Homo sapiens, UniProt P55055); assay: LanthaScreen TR-FRET Liver X Receptor Coactivator Assay, LXR beta-LBD; type: biochemical; conditions: relative to reference T0901317; for EC50: Inflection Point (potency), co-activator recruitment, read-out: LXR beta IP; for Emax: activity at max dose (efficacy), read-out: LXR beta act @ max dose (%)
T1 construct: purchased Invitrogen pv4658.pps
T1 sequence (P55055 222-460 limits assumed): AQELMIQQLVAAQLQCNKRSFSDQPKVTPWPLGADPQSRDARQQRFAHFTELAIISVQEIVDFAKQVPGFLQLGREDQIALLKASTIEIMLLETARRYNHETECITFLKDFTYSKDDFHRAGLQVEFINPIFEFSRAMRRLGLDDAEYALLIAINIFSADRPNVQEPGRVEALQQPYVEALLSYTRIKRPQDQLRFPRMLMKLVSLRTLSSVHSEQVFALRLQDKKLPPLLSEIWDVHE
Method in brief: (§1)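 Coactivator-recruitment TR-FRET format: GST-LBD, fluorescein-labelled coactivator peptide, Tb-conjugated anti-GST antibody, incubated at RT. Potency and efficacy scaled to T0901317.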

[2] = molecular target: T2, GST tagged LXRalpha LBD (ligand binding domain) (Homo sapiens, UniProt Q13133); assay: LanthaScreen TR-FRET Liver X Receptor Coactivator Assay, LXR alpha-LBD; type: biochemical; conditions: relative to reference T0901317; for LXR alpha IP (nM) / EC50: Inflection Point (potency), co-activator recruitment; for Emax: activity at max dose (efficacy), read-out: LXR alpha act @ max dose (%); for EC50: read-out: LXR alpha IP
T2 construct: purchased Invitrogen pv4655
T2 sequence (Q13133 209-447 limits assumed): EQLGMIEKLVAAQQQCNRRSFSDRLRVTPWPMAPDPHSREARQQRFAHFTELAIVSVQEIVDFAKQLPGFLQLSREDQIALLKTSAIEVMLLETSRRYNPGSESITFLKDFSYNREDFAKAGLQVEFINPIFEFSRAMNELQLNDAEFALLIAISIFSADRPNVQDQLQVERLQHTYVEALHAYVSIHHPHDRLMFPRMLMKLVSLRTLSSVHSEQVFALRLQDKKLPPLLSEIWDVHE
Method in brief: as §1

SMILES	EC50 [1] [µM]	Emax [1] [%]	LXR alpha IP (nM) [2]	Emax [2] [%]	EC50 [2] [µM]
CN(C)C(=O)c1ccc(N2CCC(C3CCN(c4ccccc4Cl)CC3)CC2)cc1Cl [Example A-107, 2-chloro-4-[1′-(2-chlorophenyl)-4,4′-bipiperidin-1-yl]-N,N-dimethylbenzamide]	0.825	62	NO IP	17	–
CN(C)C(=O)c1ccc(N2CCC(C3CCN(C(=O)OCc4c(Cl)cccc4Cl)CC3)CC2)cc1Cl [Example A-108, 2,6-dichlorobenzyl 1′-[3-chloro-4-(dimethylcarbamoyl)phenyl]-4,4′-bipiperidine-1-carboxylate]	0.008	131	–	74	0.522
CC(C)C(O)(C(=O)N1CCC(C2CCN(c3ccc(C(=O)N(C)C)c(Cl)c3)CC2)CC1)C(C)C [Example A-109, 2-chloro-4-{1′-[2-hydroxy-3-methyl-2-(1-methylethyl)butanoyl]-4,4′-bipiperidin-1-yl}-N,N-dimethylbenzamide]	0.061	98	–	22	54.2
CC(C)C(O)(C(=O)N1CCC(C2CCN(c3ccc(C(=O)N(C)C)c(Cl)c3)CC2)CC1)C1CC1 (centres unmarked) [Example A-110, 2-chloro-4-[1′-(2-cyclopropyl-2-hydroxy-3-methylbutanoyl)-4,4′-bipiperidin-1-yl]-N,N-dimethylbenzmamide]	0.052	127	–	69	1.04
CN(C)C(=O)c1ccc(N2CCC(C3CCN(C(=O)OC(C)(C)C)CC3)CC2)nc1Cl [Example B-1, tert-butyl 1′-[6-chloro-5-(dimethylcarbamoyl)pyridin-2-yl]-4,4′-bipiperidine-1-carboxylate]	0.02	119	–	74	1.55
CC(C)C(O)(C(=O)N1CCC(C2CCN(c3ccc(C(=O)N(C)C)c(Cl)n3)CC2)CC1)C(C)C [Example B-2, 2-chloro-6-{1′-[2-hydroxy-3-methyl-2-(1-methylethyl)butanoyl]-4,4′-bipiperidin-1-yl}-N,N-dimethylpyridine-3-carboxamide]	0.057	123	–	47	1.71
CC(C)C(O)(C(=O)N1CCC(C2CCN(c3ccc(C(=O)N(C)C)c(Cl)n3)CC2)CC1)C1CC1 (centres unmarked) [Example B-3, 2-chloro-6-[1′-(2-cyclopropyl-2-hydroxy-3-methylbutanoyl)-4,4′-bipiperidin-1-yl]-N,N-dimethylpyridine-3-carboxamide]	0.325	143	–	71	1.79
CC(C)C(O)(C(=O)N1CCC(C2CCN(c3ccc(C(=O)N(C)C)c(Cl)n3)CC2)CC1)C(F)(F)F (centres unmarked) [Example B-4, 2-chloro-6-{1′-[2-hydroxy-3-methyl-2-(trifluoromethyl)butanoyl]-4,4′-bipiperidin-1-yl}-N,N-dimethylpyridine-3-carboxamide]	0.026	123	–	48	0.493
CC(C)CC(O)(C(=O)N1CCC(C2CCN(c3ccc(C(=O)N(C)C)c(Cl)n3)CC2)CC1)C(F)(F)F (centres unmarked) [Example B-7, 2-chloro-6-{1′-[2-hydroxy-4-methyl-2-(trifluoromethyl)pentanoyl]-4,4′-bipiperidin-1-yl}-N,N-dimethylpyridine-3-carboxamide]	0.072	127	–	55	1.43
CN(C)C(=O)c1ccc(N2CCC(C3CCN(C(=O)c4c(F)cccc4F)CC3)CC2)nc1Cl [Example B-8, 2-chloro-6-{1′-[(2,6-difluorophenyl)carbonyl]-4,4′-bipiperidin-1-yl}-N,N-dimethylpyridine-3-carboxamide]	0.071	95	–	38	0.885
CN(C)C(=O)c1ccc(N2CCC(C3CCN(C(=O)c4c(Cl)cccc4Cl)CC3)CC2)nc1Cl [Example B-10, 2-chloro-6-{1′-[(2,6-dichlorophenyl)carbonyl]-4,4′-bipiperidin-1-yl}-N,N-dimethylpyridine-3-carboxamide]	0.161	106	–	55	1.37
CN(C)C(=O)c1ccc(N2CCC(C3CCN(C(=O)C(C)(O)C(F)(F)F)CC3)CC2)nc1Cl (centres unmarked) [Example B-11, 2-chloro-N,N-dimethyl-6-[1′-(3,3,3-trifluoro-2-hydroxy-2-methylpropanoyl)-4,4′-bipiperidin-1-yl]pyridine-3-carboxamide]	0.177	116	–	48	2.2
CN(C)C(=O)c1ccc(N2CCC(C3CCN(C(=O)C(C)(C)c4ccccc4)CC3)CC2)nc1Cl [Example B-12, 2-chloro-N,N-dimethyl-6-[1′-(2-methyl-2-phenylpropanoyl)-4,4′-bipiperidin-1-yl]pyridine-3-carboxamide]	0.065	140	–	69	0.684
CN(C)C(=O)c1ccc(N2CCC(C3CCN(C(=O)C(O)(c4ccccc4)C(F)(F)F)CC3)CC2)nc1Cl (centres unmarked) [Example B-13, 2-chloro-N,N-dimethyl-6-[1′-(3,3,3-trifluoro-2-hydroxy-2-phenylpropanoyl)-4,4′-bipiperidin-1-yl]pyridine-3-carboxamide]	0.291	95	NO IP	28	–
CN(C)C(=O)c1ccc(N2CCC(C3CCN(C(=O)C4(c5ccccc5)CCC4)CC3)CC2)nc1Cl [Example B-14, 2-chloro-N,N-dimethyl-6-{1′-[(1-phenylcyclobutyl)carbonyl]-4,4′-bipiperidin-1-yl}pyridine-3-carboxamide]	0.073	114	–	43	1.23
CN(C)C(=O)c1ccc(N2CCC(C3CCN(C(=O)C(O)(C(F)(F)F)C(F)(F)F)CC3)CC2)nc1Cl [Example B-15, 2-chloro-N,N-dimethyl-6-{1′-[3,3,3-trifluoro-2-hydroxy-2-(trifluoromethyl)propanoyl]-4,4′-bipiperidin-1-yl}pyridine-3-carboxamide]	0.034	121	–	87	2.24

Results, then the molecule that gave them:

EC50 [1] [µM]	Emax [1] [%]	LXR alpha IP (nM) [2]	Emax [2] [%]	EC50 [2] [µM]	SMILES
0.148	101	–	24	0.021	Cc1nc(N2CCC(C3CCN(C(=O)C(O)(C(C)C)C(F)(F)F)CC3)CC2)ccc1C(=O)N(C)C (centres unmarked) [Example C-1, 6-(1′-(2-Hydroxy-3-methyl-2-(trifluoromethyl)butanoyl)-[4,4′-bipiperidin]-1-yl)-N,N,2-trimethylnicotinamide]
0.157	101	–	43	1.45	CC(C)C(O)(C(=O)N1CCC(C2CCN(c3cc(F)c(C(=O)N(C)C)c(F)c3)CC2)CC1)C(F)(F)F [Example D-1, 2,6-difluoro-4-{1′-[2-hydroxy-3-methyl-2-(trifluoromethyl)butanoyl]-4,4′-bipiperidin-1-yl}-N,N-dimethylbenzamide]
0.4	99	–	41	2.77	CC(C)C(O)(C(=O)N1CCC(C2CCN(c3ccc(C(=O)N(C)C)c(F)c3)CC2)CC1)C(F)(F)F [Example D-2, 2-fluoro-4-{1′-[2-hydroxy-3-methyl-2-(trifluoromethyl)butanoyl]-4,4′-bipiperidin-1-yl}-N,N-dimethylbenzamide]
0.273	118	–	67	1.57	CC(C)C(O)(C(=O)N1CCC(C2CCN(c3ccc(C(=O)N(C)C)cc3Cl)CC2)CC1)C(F)(F)F [Example D-3, 3-chloro-4-{1′-[2-hydroxy-3-methyl-2-(trifluoromethyl)butanoyl]-4,4′-bipiperidin-1-yl}-N,N-dimethylbenzamide]
0.371	89	–	29	2.05	CN(C)S(=O)(=O)c1ccc(N2CCC(C3CCN(C(=O)[C@](O)(c4ccccc4)C(F)(F)F)CC3)CC2)cc1Cl [Example D-4, 2-chloro-N,N-dimethyl-4-{1′-[(2R)-3,3,3-trifluoro-2-hydroxy-2-phenylpropanoyl]-4,4′-bipiperidin-1-yl}benzenesulfonamide]
0.418	86	–	28	1.52	CC(C)S(=O)(=O)c1ccc(N2CCC(C3CCN(C(=O)[C@](O)(c4ccccc4)C(F)(F)F)CC3)CC2)cc1Cl [Example D-5, (2R)-3-(1′-{3-chloro-4-[(1-methylethyl)sulfonyl]phenyl}-4,4′-bipiperidin-1-yl)-1,1,1-trifluoro-3-oxo-2-phenylpropan-2-ol]
0.38	49	–	18	0.772	CS(=O)(=O)c1ccc(N2CCC(C3CCN(C(=O)c4c(F)cccc4F)CC3)CC2)cc1Cl [Example D-6, 1-[3-chloro-4-(methylsulfonyl)phenyl]-1′-[(2,6-difluorophenyl)carbonyl]-4,4′-bipiperidine]
